Reference: PubChem BioAssay AID330 (DTP/NCI, 2004)
Several values for one entry are separate records, joined by “and”; a condition that tells them apart may be missing. Equal values may be shown once. Inconclusive results and toxic doses are left out.

System: P388 leukemia ip, CD2F1 mice, survival T/C
Experiment: NCI In Vivo Anticancer Drug Screen. Data for tumor model P388 Leukemia (intraperitoneal) in CD2F1 (CDF1) mice
Settings: endpoint: median survival time, higher = longer survival
In short: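 Mice carrying the transplanted tumor received test compound or vehicle. Survival was recorded in each group, and the value is the treated-group measurement divided by that of the vehicle-treated control group.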

[1] = dose: 60.0 mg/kg/injection, schedule: Q01DX005 (ip), vehicle: saline with Tween-80
[2] = dose: 240.0 mg/kg/injection, schedule: Q01DX005 (ip), vehicle: saline with Tween-80
[3] = dose: 50.0 mg/kg/injection, schedule: Q01DX005 (ip), vehicle: Klucel (hydroxypropylcellulose) (HPC)
[4] = dose: 100.0 mg/kg/injection, schedule: Q01DX005 (ip), vehicle: Klucel (hydroxypropylcellulose) (HPC)
[5] = dose: 200.0 mg/kg/injection, schedule: Q01DX005 (ip), vehicle: Klucel (hydroxypropylcellulose) (HPC)
[6] = dose: 25.0 mg/kg/injection, schedule: Q01DX005 (ip), vehicle: Klucel (hydroxypropylcellulose) (HPC)

Which results are given for CCOc1cc2c(cc1Cc1c(OC)cc(OC)cc1OC)OCO2?
T/C [1]: 90 % of control; T/C [2]: 99 % of control

With CCOC(=O)C1(N)CCCC1 as the molecule, how does the T/C (dose: 6.25 mg/kg/injection, schedule: Q01DX009 (ip), vehicle: saline) read?
The T/C was 105 % of control and 86 % of control.

What about the T/C (dose: 12.5 mg/kg/injection, schedule: Q01DX009 (ip), vehicle: saline) of the same molecule?
Its T/C is 100 % of control and 102 % of control.

What about the T/C (dose: 25.0 mg/kg/injection, schedule: Q01DX009 (ip), vehicle: saline) of the same molecule?
Its T/C is 100 % of control and 96 % of control.

And the T/C (dose: 50.0 mg/kg/injection, schedule: Q01DX009 (ip), vehicle: saline)?
The T/C was 114 % of control and 96 % of control.

For C=C(C)c1nc(N)nc(NCc2ccccc2)n1, which T/C [3] is on record?
The T/C was 100 % of control.

And the T/C [4]?
The T/C was 102 % of control.

What about the T/C [5] of the same molecule?
The T/C was 109 % of control.

CN(C)/N=C/C=C1\N=C(c2ccccc2)OC1=O was tested. Which T/C (dose: 50.0 mg/kg/injection, schedule: Q01DX005 (ip), vehicle: saline with Tween-80) did it give?
Its T/C is 107 % of control.

What about the T/C (dose: 100.0 mg/kg/injection, schedule: Q01DX005 (ip), vehicle: saline with Tween-80) of the same molecule?
Its T/C is 104 % of control.

What about the T/C (dose: 200.0 mg/kg/injection, schedule: Q01DX005 (ip), vehicle: saline with Tween-80) of the same molecule?
The T/C was 106 % of control.

What does the source list for C=C1C2(O)CCC(C2)C1(C)C (stereo unspecified)?
T/C (dose: 60.0 mg/kg/injection, schedule: Q01DX005 (ip), vehicle: Klucel (hydroxypropylcellulose) (HPC)): 108 % of control; T/C (dose: 120.0 mg/kg/injection, schedule: Q01DX005 (ip), vehicle: Klucel (hydroxypropylcellulose) (HPC)): 106 % of control; T/C (dose: 240.0 mg/kg/injection, schedule: Q01DX005 (ip), vehicle: Klucel (hydroxypropylcellulose) (HPC)): 100 % of control

For O=c1[nH]nc(SCc2ccccc2Cl)c(=O)[nH]1, which T/C [6] is on record?
The T/C was 89 % of control.

What about the T/C [3] of the same molecule?
The T/C was 89 % of control.

And the T/C [4]?
The T/C was 86 % of control.

How did the T/C (dose: 12.5 mg/kg/injection, schedule: Q01DX001 (ip), vehicle: saline + alcohol) turn out when COC(=O)c1c(C(=O)Cc2cc3c(cc2CCN(C)C)OCO3)ccc(OC)c1OC was run?
Its T/C is 99 % of control.

And the T/C (dose: 25.0 mg/kg/injection, schedule: Q01DX001 (ip), vehicle: saline + alcohol)?
Its T/C is 100 % of control.

And the T/C (dose: 50.0 mg/kg/injection, schedule: Q01DX001 (ip), vehicle: saline + alcohol)?
The T/C was 101 % of control.

Which results are given for COC(=O)c1nnn(-c2cccc(C(F)(F)F)c2)c1C(=O)c1ccc(Cl)c(Cl)c1?
T/C [1]: 99 % of control; T/C (dose: 120.0 mg/kg/injection, schedule: Q01DX005 (ip), vehicle: saline with Tween-80): 100 % of control; T/C [2]: 92 % of control

Which T/C [3] does the source give for COc1ccccc1-n1c(Cc2cccc3ccccc23)n[nH]c1=S here?
Its T/C is 99 % of control.

And the T/C [4]?
The T/C was 100 % of control.

What about the T/C [5] of the same molecule?
The T/C was 99 % of control.

Which results are given for CC(=O)C1=C(O)C(CC(C)C)NC1=O (stereo unspecified)?
T/C [6]: 102 % of control; T/C [3]: 102 % of control; T/C [4]: 101 % of control

Which T/C (dose: 100.0 mg/kg/injection, schedule: Q01DX001 (ip), vehicle: Klucel (hydroxypropylcellulose) (HPC)) does the source give for O=c1[nH]c2nc3ccccc3n2nc1-c1ccccc1 here?
The T/C was 89 % of control.

How did the T/C (dose: 12.5 mg/kg/injection, schedule: Q01DX009 (ip), vehicle: other) turn out when c1ccc(CCNc2ncnc3nc[nH]c23)cc1 was run?
Its T/C is 102 % of control.

What about the T/C (dose: 25.0 mg/kg/injection, schedule: Q01DX009 (ip), vehicle: other) of the same molecule?
The T/C was 101 % of control.

What about the T/C (dose: 50.0 mg/kg/injection, schedule: Q01DX009 (ip), vehicle: other) of the same molecule?
Its T/C is 100 % of control.

What about the T/C (dose: 100.0 mg/kg/injection, schedule: Q01DX009 (ip), vehicle: other) of the same molecule?
Its T/C is 101 % of control.

And the T/C (dose: 200.0 mg/kg/injection, schedule: Q01DX009 (ip), vehicle: other)?
Its T/C is 102 % of control.

CN1CCN(c2nc3cccnc3s2)CC1 was tested. Which T/C (dose: 25.0 mg/kg/injection, schedule: Q04DX003 (ip), vehicle: saline with Tween-80) did it give?
Its T/C is 106 % of control.

What about the T/C (dose: 50.0 mg/kg/injection, schedule: Q04DX003 (ip), vehicle: saline with Tween-80) of the same molecule?
Its T/C is 101 % of control.

And the T/C (dose: 100.0 mg/kg/injection, schedule: Q04DX003 (ip), vehicle: saline with Tween-80)?
Its T/C is 100 % of control.

Which T/C (dose: 3.75 mg/kg/injection, schedule: Q01DX005 (ip), vehicle: saline with Tween-80) does the source give for C/C(=N\NC(=S)N1CCN(c2cnccn2)CC1)c1ccccn1 here?
Its T/C is 120 % of control.

What about the T/C (dose: 7.5 mg/kg/injection, schedule: Q01DX005 (ip), vehicle: saline with Tween-80) of the same molecule?
The T/C was 120 % of control and 122 % of control.

What does the source list for CN=C(N)N/N=C(\c1ccccc1)c1ccc(F)cc1?
T/C (dose: 12.5 mg/kg/injection, schedule: Q04DX002 (ip), vehicle: saline with Tween-80): 99 % of control; T/C (dose: 25.0 mg/kg/injection, schedule: Q04DX002 (ip), vehicle: saline with Tween-80): 100 % of control and 111 % of control

Which T/C (dose: 6.25 mg/kg/injection, schedule: Q01DX005 (ip), vehicle: saline with Tween-80) does the source give for O=C(c1cccs1)C1NO[N+]([O-])=C1c1cccs1 (stereo unspecified) here?
The T/C was 100 % of control.

And the T/C (dose: 12.5 mg/kg/injection, schedule: Q01DX005 (ip), vehicle: saline with Tween-80)?
The T/C was 106 % of control.

And the T/C (dose: 25.0 mg/kg/injection, schedule: Q01DX005 (ip), vehicle: saline with Tween-80)?
The T/C was 115 % of control.
